Patent publication US5658898A, “Intravenous solutions for a derivative of staurosporine” (CIBA GEIGY Corporation, priority 1994, dated 1997)

How the values were obtained:
[1] = cited from earlier work
water solubility = assay type: physicochemical; conditions: room temperature

| SMILES | water-solubility (in words) [1] | solubility (water solubility) [µg/mL] |
| --- | --- | --- |
| CN[C@@H]1C[C@H]2O[C@@](C)([C@@H]1OC)n1c3ccccc3c3c4c(c5c6ccccc6n2c5c31)C(=O)NC4 [staurosporin] | low water-solubility | – |
| CO[C@@H]1[C@H](N(C)C(=O)c2ccccc2)C[C@H]2O[C@]1(C)n1c3ccccc3c3c4c(c5c6ccccc6n2c5c31)C(=O)NC4 [N-benzoyl-staurosporin] | – | < 0.1 |
